From US20260098034A1, “2H-BENZOTRIAZOLE DERIVATIVE, PREPARATION METHOD THEREFOR, AND PHARMACEUTICAL COMPOSITION CONTAINING SAME” (ORXES THERAPEUTICS CO., LTD., priority 2022, published 2026)
Where “and” joins values, the source holds several entries; their conditions need not be identical. Identical values can stand only once. Counter-ions that a name gives are not always drawn. Like-named read-outs stand apart in the source and are kept apart here.

Columns and labels:
Wistar rats = experiment: PCA-induced Wistar rat premature ejaculation model; type: in vivo
Protocol: Male Wistar rats with a weight of about 300 g were adapted for one week before the experiment was started. On the day of the experiment, the animals were anesthetized with a combination of 20 mg/kg of Zoletil 50 via i.p. and 8 mg/kg of xylazine via i.p., and the body temperature was maintained at 37° C. with a thermal insulation blanket. Exposed common carotid artery was intubated with PE50 to monitor real-time arterial pressure (i.e. systolic pressure, diastolic pressure, and mean arterial pressure). The seminal vesicles and cavernosal muscles of the animals were exposed. The stable baselines of the pressure of the seminal vesicle and the cavernosal myoelectricity were recorded for 10 min. Then the drug was administered through the tail vein for the dapoxetine group, and the tested compound was orally administered for the tested compound group (for the PE model group, the drug was replaced with a solvent). After 1 min, for inducing PE modeling, 5 mg/kg of PCA was injected intraperitoneally, and then the seminal vesicle pressure curve and the change of bulbospongiosus EMG were continuously recorded for 30 min.
• A. Within 30 min, the actual number of ejaculations of the animals and the latency period of the first ejaculation; • B. Within 30 min, the number of the seminal vesicle contractions, the latency period of the first contraction, the basal pressure and the peak pressure.
The experimental data were expressed by means±S.E.M., and statistical analysis was performed by GraphPad Prism 7.0 software. Single factor variance analysis (One-way ANOVA) was used for comparison between multiple groups, and Dunnett't-test was used for statistical analysis in Post hoc test. Student's t-test was used for comparison between two groups. P<0.05 was considered as a significant difference.

[1] = 1 to 2 hours before sexual intercourse, cited from earlier work
[2] = Dapoxetine 2 mg/kg i.v. + PCA 5 mg/kg i.p., within 30 min after PCA induction, individual rats, hydrochloride
[3] = dapoxetine, medium or high dose of A001 to A006

Structure (SMILES): CN(C)[C@@H](CCOc1cccc2ccccc12)c1ccccc1 [Dapoxetine, Dapoxetine hydrochloride, reference compound]
- Actual number of ejaculations (Wistar rats; [2]): 1 (2×) and 0 (2×) and 2
- Number of the seminal vesicle contractions (Wistar rats; [2]): 1 (3×) and 0 and 3
- Seminal vesicle basal pressure (Wistar rats; [2]): 5.16 mmHg and 4.97 mmHg and 5.37 mmHg and 5.88 mmHg and 4.96 mmHg
- Seminal vesicle peak pressure (Wistar rats; [2]): 6.89 mmHg and 8.1 mmHg and 6.46 mmHg and 6.78 mmHg and 7.03 mmHg
- The first contraction latency period (Wistar rats; [2]): 1448 s and 1705 s and 1800 s and 1749 s and 866 s
- The first ejaculation latency period (Wistar rats; [2]): 1558 s and 1800 s (2×) and 1256 s and 967 s
- latency period of initial seminal vesicle contraction compared with the PE model group (Wistar rats; dapoxetine group (2 mg/kg i.v.), FIG. 4): significant increase
- ejaculation latency period (conclusion) (Wistar rats; [3]): effectively prolong
- number of ejaculations (conclusion) (Wistar rats; [3]): greatly reduce
- increase of IELT ([1]; 30 mg): 2.5 times
- increase of IELT ([1]; 60 mg): 3.0 times
